From patent US7488823B2, “Cyanoguanidines and cyanoamidines as ErbB2 and EGFR inhibitors” (Array Biopharma, Inc., priority 2003, dated 2009)

What follows are compounds tested against ErbB2 (Homo sapiens, UniProt P04626) (assay: ErbB kinase ELISA on poly-Glu-Tyr 4:1 coated microtiter plates). Settings: PGT substrate, ATP, baculovirus ErbB2, 30 minutes at room temperature, optical density at 450 nm.
ErbB2, sequence (P04626 23-1255): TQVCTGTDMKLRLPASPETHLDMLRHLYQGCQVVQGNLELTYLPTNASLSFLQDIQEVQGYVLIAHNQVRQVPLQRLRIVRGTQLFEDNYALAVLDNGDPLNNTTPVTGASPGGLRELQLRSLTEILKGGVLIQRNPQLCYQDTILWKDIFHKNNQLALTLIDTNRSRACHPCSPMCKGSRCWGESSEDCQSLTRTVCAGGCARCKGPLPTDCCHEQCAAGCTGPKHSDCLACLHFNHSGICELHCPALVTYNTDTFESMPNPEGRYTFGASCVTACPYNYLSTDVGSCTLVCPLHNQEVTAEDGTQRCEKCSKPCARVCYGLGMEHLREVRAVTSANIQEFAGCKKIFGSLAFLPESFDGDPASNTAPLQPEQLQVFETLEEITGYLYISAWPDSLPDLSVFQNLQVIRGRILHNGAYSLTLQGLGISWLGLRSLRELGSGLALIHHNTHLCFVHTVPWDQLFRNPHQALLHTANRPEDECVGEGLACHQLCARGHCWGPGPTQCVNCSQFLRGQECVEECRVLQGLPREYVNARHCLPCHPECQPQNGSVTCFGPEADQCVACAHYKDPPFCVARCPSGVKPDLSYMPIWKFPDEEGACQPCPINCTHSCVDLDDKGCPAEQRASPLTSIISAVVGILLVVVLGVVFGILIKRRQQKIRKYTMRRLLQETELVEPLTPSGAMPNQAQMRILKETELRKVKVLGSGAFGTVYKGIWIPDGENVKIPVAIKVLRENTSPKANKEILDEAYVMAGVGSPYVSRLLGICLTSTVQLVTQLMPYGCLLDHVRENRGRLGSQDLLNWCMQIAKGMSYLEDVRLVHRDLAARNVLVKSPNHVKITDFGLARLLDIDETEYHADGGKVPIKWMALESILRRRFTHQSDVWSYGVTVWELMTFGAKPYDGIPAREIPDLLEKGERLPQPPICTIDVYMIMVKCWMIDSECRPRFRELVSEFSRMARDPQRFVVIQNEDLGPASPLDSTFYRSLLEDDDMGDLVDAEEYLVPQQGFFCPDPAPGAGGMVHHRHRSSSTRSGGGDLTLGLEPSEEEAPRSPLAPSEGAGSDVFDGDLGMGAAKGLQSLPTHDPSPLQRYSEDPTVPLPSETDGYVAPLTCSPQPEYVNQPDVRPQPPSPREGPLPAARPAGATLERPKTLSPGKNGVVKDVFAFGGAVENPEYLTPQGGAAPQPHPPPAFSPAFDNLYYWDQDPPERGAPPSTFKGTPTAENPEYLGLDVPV
Type: biochemical
Procedure: The extent to which the compounds of the present invention modulate ErbB kinase activity can be determined using the following enzyme-linked immunosorbent assay (ELISA), which employs a microtiter plate coated with a protein tyrosine kinase specific polymer substrate. The phosphorylation reaction is performed on poly-Glu-Tyr 4:1 (PGT) coated microtiter plates in the presence on Mg^++, ATP and EGFR. The phosphorylated polymer substrate is detected with a phosphotyrosine specific monoclonal antibody conjugated to horseradish peroxidase (HRP). Chromogenic substrate (TMB) color is quantitiated by spectrophotometry.
The assay is performed in a 96-well microtiter plate (Immunlon 4, available from Dynex). To prepare the plate, 100 μL of 0.25 mg/mL Poly (Glu,Tyr) 4:1 Sodium Salt (available from Sigma, Catalog Number P0275) in phosphate buffered saline (PBS) is added to each well and the plates are sealed. Following incubation overnight at ambient temperature, this coating solution is removed and the plates are washed three times with 300 μL of 0.1% Tween 20 (available from Sigma, Catalog Number P2287) in PBS. If not using immediately, the coated microtiter plates may be stored at 2-8° C. with 150 μL of 0.1% Tween 20 in PBS in each well.
The compound to be tested is dissolved in DMSO at an initial concentration of 1.0 mM. This initial concentration is diluted 1:25 in DMSO, and the resulting solution is further serially diluted 1:5 eight times in DMSO. To 10 μL of the initial concentration and each dilution are added 240 μL Reaction Buffer (50 mM HEPES, 125 mM NaCl, 24 mM MgCl2, 0.1 mM Na3VO4 (boiled at pH 10 until colorless—approximately 10 minutes—and cooled prior to use), pH 7.3, filtered through a 0.2 micron filter). 25 μL of each compound solution (4% DMSO in Reaction Buffer for control) is placed in a separate microtiter plate well, along with 50 μL Reaction Buffer +ATP (15 μL 10 of mM ATP added to 5 mL Reaction Buffer) and 25 μL Reaction Buffer into which a catalytic amount of baculovirus ErbB2 has been added. The plate is then covered and incubated for 30 minutes at room temperature, after which time all liquid is aspirated from each well. The plate is washed three times with 300 μL of 0.1% Tween in PBS. Residual wash solution is removed by inverting the plate and blotting on a paper towel.
To each well is then added 100 μL of PBS containing 3% bovine serum albumin (protease-free, IgG-free, Jackson Catalog Number 001-000-162), 0.05% Tween 20 and 0.2 μg/mL anti-phosphotyrosine horseradisn peroxidase (available from Zymed, Laboratories, Inc., Catalog Number 03-7720). The plate is covered and incubated for 30 minutes at room temperature, after which time all liquid is aspirated from each well. The plate is washed three times with 300 μL of 0.1% Tween in PBS. Residual wash solution is removed by inverting the plate and blotting on a paper towel. To each well is then added 100 μL of TMB peroxidase substrate system (KPL Catalog Number 50-76-00), and the plate is allowed to incubate for 25 minutes at room temperature, at which time the reaction is stopped by the addition of 100 μL of 1M phosphoric acid to each well. The plate is tapped gently to ensure mixing.
Within about thirty minutes after the reaction is stopped, the optical density at 450 nm of each well is determined using a microtiter plate reader. A dose response curve is generated by plotting optical density versus compound concentration. IC50 is calculated from this curve using methods known in the art.
CN(C)/C(=N\C#N)NCC#Cc1ccc2ncnc(Nc3ccc(OCc4cccc(F)c4)c(Cl)c3)c2c1 [Example 1, N-(3-{4-[3-Chloro-4-(3-fluoro-benzyloxy)-phenylamino]-quinazolin-6-yl}-prop-2-ynyl)-N′-cyano-N″,N″-dimethylguanidine] gave an IC50 of 85 nM. N#C/N=C(/NCC#Cc1ccc2ncnc(Nc3ccc(OCc4cccc(F)c4)c(Cl)c3)c2c1)NCCO [Example 2, N-(3-{4-[3-Chloro-4-(3-fluoro-benzyloxy)-phenylamino]-quinazolin-6-yl}-prop-2-ynyl)-N′-cyano-N″-3-(2-hydroxy-ethyl)guanidine] was tested, and the IC50 was 410 nM. In the case of Cc1ccc(Oc2ccc(Nc3ncnc4ccc(C#CCN/C(N)=N/C#N)cc34)cc2C)cn1 [Example 3, N-cyano-N′-(3-{4-[3-Methyl-4-(6-methyl-pyridin-3-yloxy)-phenylamino]-quinazolin-6-yl}-prop-2-ynyl)guanidine], the IC50 is reported as 8 nM. Compound N#C/N=C(\NCc1ccc(-c2ccc3ncnc(Nc4ccc(OCc5cccc(F)c5)c(Cl)c4)c3c2)o1)N1CCOCC1 [Example 4, N-(5-{4-[3-Chloro-4-(3-fluoro-benzyloxy)-phenylamino]-quinazolin-6-yl}-furan-2-ylmethyl)-N′-cyano-morpholine-4-carboxamidine] has an IC50 of 13 nM. Cc1ccc(Oc2ccc(Nc3ncnc4ccc(-c5csc(CN/C(N)=N\C#N)n5)cc34)cc2C)cn1 [Example 5, N-cyano-N′-(4-{4-[3-Methyl-4-(6-methyl-pyridin-3-yloxy)-phenylamino]-quinazolin-6-yl}-thiazol-2-ylmethyl)guanidine] showed an IC50 of 31 nM. COc1cc2ncnc(Nc3ccc(OCc4ccccn4)c(Cl)c3)c2cc1OCCCN/C(=N\C#N)N(C)CCN(C)C [Example 6, N-(3-{4-[3-Chloro-4-(pyridin-2-ylmethoxy)-phenylamino]-7-methoxy-quinazolin-6-yloxy}-propyl)-N′-cyano-N″-(2-dimethylamino-ethyl)-N″-methylguanidine] gave an IC50 of 14 nM. For COc1cc2ncnc(Nc3ccc(OCc4ccccn4)c(Cl)c3)c2cc1OCCCN/C(=N\C#N)N(C)C [Example 7, N-(3-{4-[3-Chloro-4-(pyridin-2-ylmethoxy)-phenylamino]-7-methoxy-quinazolin-6-yloxy}-propyl)-N′-cyano-N″,N″-dimethylguanidine], the IC50 was 33 nM. Work on CN/C(=N/C#N)NCCCOc1cc2c(Nc3ccc(OCc4cccc(F)c4)c(Cl)c3)ncnc2cc1OC [Example 8, N-(3-{4-[3-Chloro-4-(3-fluoro-benzyloxy)-phenylamino]-7-methoxy-quinazolin-6-yloxy}-propyl) -N′-cyano-N″-methylguanidine] yielded an IC50 of 40 nM. N#C/N=C(\NCC#Cc1ccc2ncnc(Nc3ccc4c(cnn4Cc4cccc(F)c4)c3)c2c1)N1CCOCC1 [Example 9, N-cyano-N′-(3-{4-[1-(3-Fluoro-benzyl)-1 H-indazol-5-ylamino]-quinazolin-6-yl}-prop-2-ynyl)-morpholine-4-carboxamidine] gave an IC50 of 12 nM. For COCCN(C)/C(=N/C#N)NC/C=C/c1ccc2ncnc(Nc3ccc4c(cnn4Cc4cccc(F)c4)c3)c2c1 [Example 10, N-cyano-N′-(3-{4-[1-(3-Fluoro-benzyl)-1H-indazol-5-ylamino]-quinazolin-6-yl}-allyl)-N″-(2-methoxy-ethyl)-N″-methylguanidine], the IC50 was 17 nM.
